From PubChem BioAssay (NCI)
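Step 1: Grow cells in 96-well plates. Step 2: Expose to compound for 48 hours at 5 concentrations. Step 3: Interpolate endpoints linearly; if unreached, use highest concentration. Definition used: TGI = concentration required for complete inhibition of growth.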

What was measured:
Test in all cases: NCI tumour cell line growth inhibition, 48 h
M19-MEL melanoma = system: M19-MEL melanoma
SNB-78 CNS = system: SNB-78 CNS
KM20L2 colon = system: KM20L2 colon
DMS 114 small cell lung = system: DMS 114 small cell lung
XF 498 CNS = system: XF 498 CNS
LXFL 529 NSCLC = system: LXFL 529 NSCLC
HOP-18 NSCLC = system: HOP-18 NSCLC
P388 leukemia = system: P388 leukemia
SN12K1 renal = system: SN12K1 renal
P388/ADR leukemia = system: P388/ADR leukemia

| Structure (SMILES) | TGI (M19-MEL melanoma) [µM] | TGI (SNB-78 CNS) [µM] | TGI (KM20L2 colon) [µM] | TGI (DMS 114 small cell lung) [µM] | TGI (XF 498 CNS) [µM] | TGI (LXFL 529 NSCLC) [µM] | TGI (HOP-18 NSCLC) [µM] | TGI (P388 leukemia) [µM] | TGI (SN12K1 renal) [µM] | TGI (P388/ADR leukemia) [µM] |
| --- | --- | --- | --- | --- | --- | --- | --- | --- | --- | --- |
| NCCCCNCCCNC(=O)c1nc(-c2csc(CCN)n2)sc1Cl | > 100 | > 100 | > 100 | > 100 | > 100 | 45.6 |  |  |  |  |
| COc1cc2c(cc1OC)-c1c3c(cc4c1[C@@H](C2)N(C)CC4)OCO3 | 24.1 | 43.9 | 31.9 | 24.8 |  |  | 52 | 27.1 | 22.3 | 23.3 |
| OC12CC/C(=N/OCc3ccccc3)CC1c1ccccc12 (stereo not drawn) | > 100 | > 100 | > 100 | > 100 |  | > 100 | > 100 |  |  |  |
| CC(=O)OC1[C@H]2c3cc4c(cc3CN3CCC(=C[C@@H]1O)C23)OCO4 (stereo partly drawn) | > 100 | > 100 | > 100 |  |  | > 100 |  |  |  |  |
| N#CC(NNC(=O)c1ccccc1O)c1cccc(O)c1 (stereo not drawn) |  | > 100 | > 100 | 11.1 |  | > 100 | > 100 |  |  |  |
| CC(=O)Oc1ccc(C2COc3cc(OC(C)=O)c(OC(C)=O)cc3C2)cc1 (stereo not drawn) | 33.2 | 80.2 | 75.5 | 17.1 | 25.9 |  | 46.8 | 37.1 | 35.9 | > 53.6 |
